Reference: publication PMC2858705 (PLoS Pathogens, 2010)
Where “and” joins values, the source holds several entries; their conditions need not be identical. Identical values can stand only once. Like-named read-outs stand apart in the source and are kept apart here.

Columns and labels:
[1] = biological target: SARS-CoV nsp10/nsp16 2'O-MTase (Severe acute respiratory syndrome coronavirus, UniProt P0C6X7); assay: biochemical; assay type: biochemical
SARS-CoV nsp14 N7-MTase = SARS-CoV nsp14 N7-MTase (Severe acute respiratory syndrome coronavirus, UniProt P0C6X7); assay: biochemical; assay type: biochemical
VV:N7-MTase = conditions: cited from earlier work
DV:NS5MTase = conditions: read-out: IC50 2'O-MTase activity of DV:NS5MTase; cited from earlier work
VV:2'O-MTase = conditions: cited from earlier work
SARS-CoV = conditions: infected cells; cited from earlier work

Cn1c[n+]([C@@H]2O[C@H](COP(=O)(O)OP(=O)(O)OP(=O)(O)OC[C@H]3O[C@@H](n4cnc5c(N)ncnc54)[C@H](O)[C@@H]3O)[C@@H](O)[C@H]2O)c2nc(N)[nH]c(=O)c21 [^7MeGpppA]
inhibition of nsp16/nsp10 2'O-MTase at 100 µM [1]: 50% | inhibition of nsp14 N7-MTase at 100 µM (SARS-CoV nsp14 N7-MTase): 50%

Nc1ncnc2c1ncn2[C@@H]1O[C@H](C[C@@H](N)CC[C@H](N)C(=O)O)[C@@H](O)[C@H]1O [sinefungin, adenosyl-ornithine]
IC50 (VV:N7-MTase): 12 nM | IC50 (DV:NS5MTase): 420 nM and 630 nM | IC50 (VV:2'O-MTase): 39.5 nM

O=C(O)C1=CC(=C(c2ccc(O)c(C(=O)O)c2)c2ccc(O)c(C(=O)O)c2)C=CC1=O [ATA, aurintricarboxylic acid]
inhibition of SARS-CoV replication (SARS-CoV): inhibit SARS-CoV replication | IC50 2'O-MTase activity of nsp10/nsp16 [1]: micromolar range | inhibition of nsp16/nsp10 2'O-MTase at 100 µM (in words) [1]: efficiently inhibited | IC50 ([1]; IC50 2'O-MTase activity of nsp10/nsp16): 2.1 µM and 6.4 µM | IC50 N7-MTase activity of nsp14 (SARS-CoV nsp14 N7-MTase): micromolar range | inhibition of nsp14 N7-MTase at 100 µM (in words) (SARS-CoV nsp14 N7-MTase): efficiently inhibited | IC50 (SARS-CoV nsp14 N7-MTase; IC50 N7-MTase activity of nsp14): 6.4 µM and 2.1 µM

Nc1nc2c(ncn2[C@@H]2O[C@H](COP(=O)(O)OP(=O)(O)OP(=O)(O)OC[C@H]3O[C@@H](n4cnc5c(N)ncnc54)[C@H](O)[C@@H]3O)[C@@H](O)[C@H]2O)c(=O)[nH]1 [GpppA]
inhibition of nsp16/nsp10 2'O-MTase at 100 µM [1]: 50% | inhibition of nsp14 N7-MTase at 100 µM (SARS-CoV nsp14 N7-MTase): 50%

Nc1ncnc2c1ncn2[C@@H]1O[C@H](CSCC[C@H](N)C(=O)O)[C@@H](O)[C@H]1O [AdoHcy, S-adenosyl-l-homocysteine]
inhibition of nsp16/nsp10 2'O-MTase at 100 µM (in words) [1]: efficiently inhibited | IC50 ([1]; read-out: IC50 2'O-MTase activity of nsp10/nsp16): 12 µM | Ki (VV:N7-MTase): 1000 nM | inhibition of nsp14 N7-MTase at 100 µM (in words) (SARS-CoV nsp14 N7-MTase): efficiently inhibited | IC50 (SARS-CoV nsp14 N7-MTase; read-out: IC50 N7-MTase activity of nsp14): 16 µM | Ki (VV:2'O-MTase): 500 nM
